Laboratory results reported in ChEMBL document CHEMBL3797196, “Discovery of 3-aminopicolinamides as metabotropic glutamate receptor subtype 4 (mGlu4) positive allosteric modulator warheads engendering CNS exposure and in vivo efficacy” (Bioorg Med Chem Lett, 2016).
Active and inactive are the calls of the source. The rule behind the calls is not given here.

Legend:
[1] = target: T1, Metabotropic glutamate receptor 4 (Homo sapiens, UniProt Q14833); experiment: Positive allosteric modulator activity at human mGlu4 receptor expressed in CHO cells expressing Gqi5 by calcium mobilization assay; type: functional, cell-based
T1 sequence (Q14833 whole entry): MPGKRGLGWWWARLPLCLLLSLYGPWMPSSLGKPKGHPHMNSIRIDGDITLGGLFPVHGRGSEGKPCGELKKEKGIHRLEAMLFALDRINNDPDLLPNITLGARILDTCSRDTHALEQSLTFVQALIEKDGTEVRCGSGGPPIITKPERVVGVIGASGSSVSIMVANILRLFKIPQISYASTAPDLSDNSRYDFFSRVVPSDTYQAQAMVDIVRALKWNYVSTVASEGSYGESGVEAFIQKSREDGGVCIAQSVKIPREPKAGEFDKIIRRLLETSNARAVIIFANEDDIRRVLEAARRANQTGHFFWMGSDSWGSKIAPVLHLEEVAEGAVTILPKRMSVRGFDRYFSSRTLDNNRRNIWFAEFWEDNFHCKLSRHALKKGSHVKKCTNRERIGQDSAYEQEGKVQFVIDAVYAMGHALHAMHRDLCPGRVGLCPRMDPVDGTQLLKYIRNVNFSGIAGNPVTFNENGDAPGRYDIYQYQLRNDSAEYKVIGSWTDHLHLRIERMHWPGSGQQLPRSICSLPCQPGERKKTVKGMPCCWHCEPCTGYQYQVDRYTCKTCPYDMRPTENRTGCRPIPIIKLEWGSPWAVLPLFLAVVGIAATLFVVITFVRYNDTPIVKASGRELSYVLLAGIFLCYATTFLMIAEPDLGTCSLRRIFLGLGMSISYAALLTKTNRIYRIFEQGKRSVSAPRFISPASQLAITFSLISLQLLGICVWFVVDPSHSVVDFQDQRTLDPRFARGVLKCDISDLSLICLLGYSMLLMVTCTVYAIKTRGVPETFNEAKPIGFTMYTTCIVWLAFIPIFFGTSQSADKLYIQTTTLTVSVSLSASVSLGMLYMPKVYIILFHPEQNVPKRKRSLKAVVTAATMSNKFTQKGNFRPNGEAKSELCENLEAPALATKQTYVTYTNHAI

[2] = target: T1, Metabotropic glutamate receptor 4; experiment: Positive allosteric modulation of human mGlu4 receptor expressed in CHO cells coexpressing Gqi5 assessed as potentiation of glutamate-induced calcium mobilization at 30 uM relative to (-)-PHCCC; type: functional, cell-based
[3] = target: Cytochrome P450 3A4 (Homo sapiens, UniProt P08684); experiment: Inhibition of CYP3A4 in human liver microsomes using 1-hydroxymidazolam as substrate; type: ADME
Sequence of Cytochrome P450 3A4 (P08684 whole entry): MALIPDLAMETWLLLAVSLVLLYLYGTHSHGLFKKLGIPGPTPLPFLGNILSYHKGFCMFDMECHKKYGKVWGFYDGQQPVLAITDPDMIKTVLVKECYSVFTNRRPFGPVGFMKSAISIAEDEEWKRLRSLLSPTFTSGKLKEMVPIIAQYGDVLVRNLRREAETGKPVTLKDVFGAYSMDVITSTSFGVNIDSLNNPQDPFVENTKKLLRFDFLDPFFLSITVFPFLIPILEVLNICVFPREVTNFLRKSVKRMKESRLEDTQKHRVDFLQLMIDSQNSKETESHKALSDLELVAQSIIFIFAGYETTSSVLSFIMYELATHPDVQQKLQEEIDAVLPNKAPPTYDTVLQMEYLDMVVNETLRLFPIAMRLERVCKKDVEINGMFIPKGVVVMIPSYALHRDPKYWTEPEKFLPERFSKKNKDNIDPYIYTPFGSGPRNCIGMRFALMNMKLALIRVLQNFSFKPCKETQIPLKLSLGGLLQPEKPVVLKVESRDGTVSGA

[4] = target: Cytochrome P450 2D6 (Homo sapiens, UniProt P10635); experiment: Inhibition of CYP2D6 in human liver microsomes using dextrophan tartarate as substrate; type: ADME
Sequence of Cytochrome P450 2D6 (P10635 whole entry): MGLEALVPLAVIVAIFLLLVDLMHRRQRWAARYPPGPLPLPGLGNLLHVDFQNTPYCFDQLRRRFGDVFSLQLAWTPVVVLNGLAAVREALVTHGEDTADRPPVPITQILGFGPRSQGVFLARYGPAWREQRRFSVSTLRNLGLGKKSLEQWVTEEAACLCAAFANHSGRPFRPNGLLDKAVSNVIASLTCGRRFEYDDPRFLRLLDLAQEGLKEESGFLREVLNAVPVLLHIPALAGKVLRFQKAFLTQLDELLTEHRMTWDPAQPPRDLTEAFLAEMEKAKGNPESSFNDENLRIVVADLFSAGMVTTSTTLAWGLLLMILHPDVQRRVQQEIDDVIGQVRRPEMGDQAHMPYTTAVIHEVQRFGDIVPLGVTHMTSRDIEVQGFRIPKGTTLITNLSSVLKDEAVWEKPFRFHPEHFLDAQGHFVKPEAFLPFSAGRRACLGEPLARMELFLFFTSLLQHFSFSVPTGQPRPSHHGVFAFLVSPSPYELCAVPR

[5] = target: T2, Cytochrome P450 1A2 (Homo sapiens, UniProt P05177); experiment: Inhibition of CYP1A2 in human liver microsomes using acetaminophen as substrate; type: ADME
T2 sequence (P05177 whole entry): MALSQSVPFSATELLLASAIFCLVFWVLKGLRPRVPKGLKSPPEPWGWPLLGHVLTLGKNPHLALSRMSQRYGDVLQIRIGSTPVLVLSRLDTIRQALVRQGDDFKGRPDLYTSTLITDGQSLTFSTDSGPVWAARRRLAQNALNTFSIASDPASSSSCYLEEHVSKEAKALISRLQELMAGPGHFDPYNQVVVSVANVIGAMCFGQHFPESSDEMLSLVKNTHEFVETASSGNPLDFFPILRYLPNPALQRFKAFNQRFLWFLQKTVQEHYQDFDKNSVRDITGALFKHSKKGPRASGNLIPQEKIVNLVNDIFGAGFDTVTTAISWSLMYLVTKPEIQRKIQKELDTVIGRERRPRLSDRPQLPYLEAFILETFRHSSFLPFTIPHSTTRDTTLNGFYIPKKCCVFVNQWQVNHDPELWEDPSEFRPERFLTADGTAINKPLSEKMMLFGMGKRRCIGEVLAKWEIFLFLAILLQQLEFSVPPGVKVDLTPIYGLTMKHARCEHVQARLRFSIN

[6] = target: Cytochrome P450 2C9 (Homo sapiens, UniProt P11712); experiment: Inhibition of CYP2C9 in human liver microsomes using 4-hydroxydiclofenac as substrate; type: ADME
Sequence of Cytochrome P450 2C9 (P11712 whole entry): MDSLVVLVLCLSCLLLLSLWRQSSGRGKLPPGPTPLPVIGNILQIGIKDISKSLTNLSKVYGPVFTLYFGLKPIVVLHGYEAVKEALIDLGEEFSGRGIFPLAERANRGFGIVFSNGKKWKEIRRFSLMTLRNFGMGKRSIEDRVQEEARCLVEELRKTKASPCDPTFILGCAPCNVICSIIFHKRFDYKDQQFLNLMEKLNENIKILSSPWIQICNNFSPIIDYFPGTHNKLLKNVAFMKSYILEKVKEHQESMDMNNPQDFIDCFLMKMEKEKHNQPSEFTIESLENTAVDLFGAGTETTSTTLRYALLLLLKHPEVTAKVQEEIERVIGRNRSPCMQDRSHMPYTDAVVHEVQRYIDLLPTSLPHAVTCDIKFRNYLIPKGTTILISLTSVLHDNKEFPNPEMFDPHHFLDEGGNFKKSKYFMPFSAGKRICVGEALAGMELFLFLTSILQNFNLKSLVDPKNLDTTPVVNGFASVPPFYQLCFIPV

[7] = Clearance in Sprague-Dawley rat by LC/MS analysis; type: ADME, organism-based; conditions: in vivo
[8] = Volume of distribution at steady state in Sprague-Dawley rat by LC/MS analysis; type: ADME, organism-based; conditions: in vivo, read-out: Vdss
[9] = Half life in Sprague-Dawley rat by LC/MS analysis; type: ADME, organism-based; conditions: in vivo
[10] = Ratio of drug level in brain to plasma in rat at 0.25 mg/kg, iv infused at 0.25 hr rate through cassette dosing schedule; type: ADME, organism-based
[11] = Binding affinity to human P-gp assessed as efflux ratio by cell based assay; type: ADME
[12] = tested on: Rattus norvegicus; experiment: Reversal of haloperidol-induced catalepsy in Sprague-Dawley rat at 1 mg/kg, po administered 60 mins after haloperidol-challenge measured after 30 mins; type: functional, organism-based
[13] = Drug level in brain of Sprague-Dawley rat model of haloperidol-induced catalepsy at 1 mg/kg, po administered 60 mins after haloperidol-challenge measured after 30 mins; type: ADME, organism-based; conditions: read-out: Drug uptake
[14] = tested on: Brain; experiment: Partition coefficient in brain of Sprague-Dawley rat model of haloperidol-induced catalepsy at 1 mg/kg, po administered 60 mins after haloperidol-challenge measured after 30 mins; type: ADME, organism-based; conditions: 0.5 h
[15] = Ratio of drug level in brain of Sprague-Dawley rat model of haloperidol-induced catalepsy at 1 mg/kg, po to EC50 for positive allosteric modulator activity at rat mGlu4 receptor
[16] = target: Metabotropic glutamate receptor 4 (Rattus norvegicus, UniProt P31423); experiment: Positive allosteric modulator activity at rat mGlu4 receptor
Sequence of Metabotropic glutamate receptor 4 (Rattus norvegicus, UniProt P31423) (P31423 whole entry): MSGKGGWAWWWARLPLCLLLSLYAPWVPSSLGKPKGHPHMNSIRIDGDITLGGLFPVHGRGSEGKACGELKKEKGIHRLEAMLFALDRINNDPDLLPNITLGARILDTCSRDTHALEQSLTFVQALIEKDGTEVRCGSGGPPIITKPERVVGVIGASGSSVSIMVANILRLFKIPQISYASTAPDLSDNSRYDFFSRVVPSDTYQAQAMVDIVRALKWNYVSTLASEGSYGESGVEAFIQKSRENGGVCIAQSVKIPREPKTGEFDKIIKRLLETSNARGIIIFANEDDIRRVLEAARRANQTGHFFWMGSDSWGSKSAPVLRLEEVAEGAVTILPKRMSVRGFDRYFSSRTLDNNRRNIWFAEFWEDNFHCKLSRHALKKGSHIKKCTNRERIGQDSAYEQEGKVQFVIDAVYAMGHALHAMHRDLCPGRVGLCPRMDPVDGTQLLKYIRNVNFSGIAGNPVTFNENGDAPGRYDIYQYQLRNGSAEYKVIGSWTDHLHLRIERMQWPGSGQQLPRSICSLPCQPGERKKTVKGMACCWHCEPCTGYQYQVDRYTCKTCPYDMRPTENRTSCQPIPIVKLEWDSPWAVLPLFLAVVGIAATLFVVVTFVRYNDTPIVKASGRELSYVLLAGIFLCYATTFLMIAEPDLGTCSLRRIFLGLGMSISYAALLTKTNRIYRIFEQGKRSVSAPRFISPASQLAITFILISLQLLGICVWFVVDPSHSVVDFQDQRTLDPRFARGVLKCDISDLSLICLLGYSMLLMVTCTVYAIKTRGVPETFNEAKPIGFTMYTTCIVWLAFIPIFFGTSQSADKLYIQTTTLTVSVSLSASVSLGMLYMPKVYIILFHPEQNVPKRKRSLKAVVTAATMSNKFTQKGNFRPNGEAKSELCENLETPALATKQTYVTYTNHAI

[17] = Intrinsic clearance in rat hepatic microsomes; type: ADME, Liver; conditions: read-out: CLH
[18] = Intrinsic clearance in human hepatic microsomes; type: ADME, Liver; conditions: read-out: CLH
[19] = Fraction unbound in human plasma; type: ADME, cell-free
[20] = tested on: Plasma; experiment: Fraction unbound in rat plasma; type: ADME, cell-free
[21] = tested on: Rattus norvegicus; experiment: Reversal of haloperidol-induced catalepsy in Sprague-Dawley rat at 10 mg/kg, po administered 60 mins after haloperidol-challenge measured after 30 mins; type: functional, organism-based
[22] = tested on: Rattus norvegicus; experiment: Reversal of haloperidol-induced catalepsy in orally dosed Sprague-Dawley rat administered 60 mins after haloperidol-challenge measured after 30 mins; type: functional; conditions: po, read-out: MED
[23] = tested on: Rattus norvegicus; experiment: Reversal of haloperidol-induced catalepsy in Sprague-Dawley rat at 3 mg/kg, po administered 60 mins after haloperidol-challenge measured after 30 mins; type: functional, organism-based
[24] = Drug level in brain of Sprague-Dawley rat model of haloperidol-induced catalepsy at 1 to 10 mg/kg, po administered 60 mins after haloperidol-challenge measured after 30 mins; type: ADME, organism-based; conditions: read-out: Drug uptake
[25] = tested on: Brain; experiment: Partition coefficient in brain of Sprague-Dawley rat model of haloperidol-induced catalepsy at 1 to 10 mg/kg, po administered 60 mins after haloperidol-challenge measured after 30 mins; type: ADME, organism-based; conditions: 0.5 h
[26] = Ratio of drug level in brain of Sprague-Dawley rat model of haloperidol-induced catalepsy at 1 to 10 mg/kg, po to EC50 for positive allosteric modulator activity at rat mGlu4 receptor

Row | Structure (SMILES) | EC50 ([1]; read-out: pEC50 (converted)) [µM] | %max [2] [%] | EC50 ([1]; read-out: EC50) [µM] | other results
1 | Nc1cccnc1C(=O)Nc1ccc(N2Cc3ncccc3C2=O)c(Cl)c1 | 1.26 | 68.9 | – | –
2 | Nc1cccnc1C(=O)Nc1ccc(N2Cc3ccccc3CC2=O)c(Cl)c1 | 2.19 | 63.2 | – | –
3 | CC1(C2CC2)CC(=O)N(c2ccc(NC(=O)c3ncccc3N)cc2Cl)C1 (stereo not given) | 2.82 | 66.2 | – | –
4 | Nc1cccnc1C(=O)Nc1ccc(N2Cc3ccc(Cl)cc3C2=O)c(Cl)c1 | – | 42.3 | > 10 | –
5 | Cc1cccc2c1C(=O)N(c1ccc(NC(=O)c3ncccc3N)cc1Cl)C2=O | 0.692 | 122 | – | –
6 | Nc1cccnc1C(=O)Nc1ccc(N2CCCC2=O)c(Cl)c1 | – | 39.6 | > 10 | –
7 | Nc1cccnc1C(=O)Nc1ccc(N2C(=O)c3ccccc3C2=O)c(Cl)c1 | 0.0955 | 89.1 | – | IC50 [3]: > 30 µM; IC50 [4]: > 30 µM; IC50 [5]: > 30 µM; IC50 [6]: 7.2 µM; clearance [7]: 3.98 mL/min/kg; Vd [8]: 0.85 L/kg; half-life [9]: 3.7 h; Kp [10]: 1.31; Ratio [11]: 1.2; Activity [12]: Active; concentration at 0.5 h [13]: 334 nM; Kp [14]: 0.3; Ratio [15]: 2; EC50 [16]: 0.128 µM; CLint scaled [17]: 51 mL/min/kg; CLint scaled [18]: 5.8 mL/min/kg; Fu [19]: 0.007; Fu [20]: 0.003
8 | Nc1cccnc1C(=O)Nc1cccc(Cl)c1 | 0.575 | 88.1 | 0.587 | –
9 | COc1ccc2c(c1)C(=O)N(c1ccc(NC(=O)c3ncccc3N)cc1Cl)C2 | 0.316 | 71.7 | – | –
10 | Nc1cccnc1C(=O)Nc1ccc(N2CC(c3c(F)cccc3Cl)CC2=O)c(Cl)c1 (stereo not given) | 1.86 | 75.9 | – | –
11 | Nc1cccnc1C(=O)Nc1ccc(N2CC3(CCCCC3)CC2=O)c(Cl)c1 | 1.29 | 52 | – | –
12 | CC1c2ccccc2C(=O)N1c1ccc(NC(=O)c2ncccc2N)cc1Cl (stereo not given) | 3.98 | 76.8 | – | –
13 | CC(C)CC1CC(=O)N(c2ccc(NC(=O)c3ncccc3N)cc2Cl)C1 (stereo not given) | 1.62 | 74.5 | – | –
14 | Fc1ccc(Nc2n[nH]c3cccnc23)cc1Cl | – | – | – | Activity [12]: Active; Activity [21]: Active
15 | O=C(Nc1ccc(N2C(=O)c3ccccc3C2=O)c(Cl)c1)c1ncccc1O | – | 115 | 0.125 | –
16 | CC1(C)CC(=O)N(c2ccc(NC(=O)c3ncccc3N)cc2Cl)C1 | – | 12.7 | > 10 | –
17 | Nc1cccnc1C(=O)Nc1ccc(N2CC(c3cccnc3)CC2=O)c(Cl)c1 (stereo not given) | 2.51 | 92.8 | – | –
18 | Cc1ncc(Oc2ccc(NC(=O)c3ncccc3N)cc2Cl)cn1 | 1.35 | 89.8 | – | –
19 | Nc1cccnc1C(=O)Nc1ccc(N2C(=O)C3CCC2C3)c(Cl)c1 (stereo not given) | – | 47.7 | > 10 | –
20 | Nc1cccnc1C(=O)Nc1ccc(N2CC(Cc3ccccc3)CC2=O)c(Cl)c1 (stereo not given) | 0.759 | 45.3 | – | –
21 | CCc1cnc(Oc2ccc(NC(=O)c3ncccc3N)cc2Cl)nc1 | 0.0646 | 97.9 | – | IC50 [3]: 21.1 µM; IC50 [4]: > 30 µM; IC50 [5]: 2.6 µM; IC50 [6]: > 30 µM; clearance [7]: 13.7 mL/min/kg; Vd [8]: 0.86 L/kg; half-life [9]: 1.5 h; Kp [10]: 0.36; Ratio [11]: 1.9; minimal effective dose [22]: 1 mg/kg; Activity [23]: Active; concentration at 0.5 h [24]: 172 nM; Kp [25]: 0.2; Ratio [26]: 3.5; EC50 [16]: 0.0466 µM; CLint scaled [17]: 46.1 mL/min/kg; CLint scaled [18]: 17.7 mL/min/kg; Fu [19]: 0.004; Fu [20]: 0.004
22 | Nc1cccnc1C(=O)Nc1ccc(N2Cc3ccccc3C2=O)c(Cl)c1 | 0.234 | 43.9 | – | –
23 | Nc1cccnc1C(=O)Nc1ccc(N2CCc3ccccc3C2=O)c(Cl)c1 | 0.912 | 60.7 | – | –
24 | Nc1cccnc1C(=O)Nc1ccc(N2CC3(CCCC3)CC2=O)c(Cl)c1 | – | 13.8 | > 10 | –
25 | CCc1cnc(Oc2ccc(NC(=O)c3ccncc3N)cc2Cl)nc1 | – | 44.2 | > 10 | –
26 | CCc1cnc(Oc2ccc(NC(=O)c3nccnc3N)cc2Cl)nc1 | – | 104 | 0.296 | –
